In patent publication US8618301B2, “5-phenylpyrazolopyridine derivatives, preparation and therapeutic use thereof” (Sanofi, priority 2009, dated 2013):

Legend:
mouse Nurr1 receptor = target: T1, mouse Nurr1 receptor (Mus musculus, UniProt Q06219); test: In vitro activity on N2A cells (8NBRE-luciferase reporter); assay type: cell-based; details: N2A-8NBRE cells, 24 hours incubation
T1 construct: a cell line (N2A) endogenously expressing the mouse Nurr1 receptor; host or cells: Neuro-2A (N2A) mouse neuroblastoma cells stably transfected with 8NBRE-luciferase
T1 sequence (Q06219 whole entry): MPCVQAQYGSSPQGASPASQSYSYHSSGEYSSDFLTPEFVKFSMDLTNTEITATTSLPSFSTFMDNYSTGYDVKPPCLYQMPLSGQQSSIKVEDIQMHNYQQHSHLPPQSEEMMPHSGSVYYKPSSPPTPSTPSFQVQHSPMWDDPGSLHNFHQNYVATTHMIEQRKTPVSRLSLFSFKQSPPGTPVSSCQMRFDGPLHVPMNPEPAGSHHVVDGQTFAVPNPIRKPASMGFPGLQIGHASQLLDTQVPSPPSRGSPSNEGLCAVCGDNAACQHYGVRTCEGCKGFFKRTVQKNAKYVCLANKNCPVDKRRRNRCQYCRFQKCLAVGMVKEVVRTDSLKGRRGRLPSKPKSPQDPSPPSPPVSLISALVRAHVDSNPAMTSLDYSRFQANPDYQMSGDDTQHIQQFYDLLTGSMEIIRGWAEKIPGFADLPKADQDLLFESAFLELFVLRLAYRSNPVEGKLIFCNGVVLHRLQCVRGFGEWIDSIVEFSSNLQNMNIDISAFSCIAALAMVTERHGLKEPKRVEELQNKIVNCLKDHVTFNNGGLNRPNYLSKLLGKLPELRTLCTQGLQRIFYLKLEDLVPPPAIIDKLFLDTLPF
Procedure: The compounds according to the invention have formed the subject of pharmacological assays which make it possible to determine their modulatory effect on NOT. Evaluation of the In Vitro Activity on N2A Cells
The activity of the compounds according to the invention was evaluated on a cell line (N2A) endogenously expressing the mouse Nurr1 receptor and stably transfected with the NOT binding response element (NBRE) coupled to the luciferase reporter gene. The assays were carried out according to the procedure described below.
The Neuro-2A cell line comes from a standard commercial source (ATCC). The Neuro-2A clone was obtained, from a spontaneous tumour originating from an A albino mouse strain, by R. J Klebe et al. This Neuro-2A line is subsequently stably transfected with 8NBRE-luciferase. The N2A-8NBRE cells are cultured until confluence in 75 cm^2 culture flasks containing DMEM supplemented with 10% of foetal calf serum, 4.5 g/l of glucose and 0.4 mg/ml of geneticin. After a week of culture, the cells are recovered with 0.25% trypsin for 30 seconds and then resuspended in DMEM without phenol red, containing 4.5 g/l of glucose and 10% of Hyclone delipidized serum, and deposited into transparent-bottom 96-well white plates. The cells are deposited at a rate of 60 000 per well in 75 μl for 24 hours before the addition of the products. The products are applied in 25 μl and incubated for a further 24 hours. On the day of the measurement, an equivalent volume (100 μl) of Steadylite is added to each well and then left for a period of 30 minutes in order to obtain complete cell lysis and maximum signal production. The plates are subsequently measured in a luminescence counter for microplates after having been sealed with an adhesive film. The products are prepared in the form of a stock solution at 10^−2M and then diluted in 100% of DMSO. Each product concentration is prediluted in culture medium before incubation with the cells, thus containing 0.625% final concentration of DMSO.

melting point [°C]	EC50 (mouse Nurr1 receptor) [nM]	Compound
132 to 134	–	CC(O)c1cccc(-c2ccn3nc(-c4ccc(F)cc4)cc3c2)c1 (stereo not drawn) [Compound 8, 1-{3-[2-(4-fluorophenyl)pyrazolo[1,5-a]pyridin-5-yl]phenyl}ethanol]
141 to 143	–	OCC1(c2cccc(-c3ccn4nc(-c5ccc(Cl)cc5)cc4c3)c2)CC1 [Compound 4, 1-{3-[2-(4-chlorophenyl)pyrazolo[1,5-a]pyridin-5-yl]phenyl}cyclopropylmethanol]
161 to 164	0.2	OCc1cccc(-c2ccn3nc(-c4ccc(Cl)cc4)cc3c2)c1 [Compound 1, {3-[2-(4-chlorophenyl)pyrazolo[1,5-a]pyridin-5-yl]phenyl}methanol]
181 to 183	164	OC1CCc2ccc(-c3ccn4nc(-c5ccc(Cl)cc5)cc4c3)cc21 (stereo not drawn) [Compound 12, 6-[2-(4-chlorophenyl)pyrazolo[1,5-a]pyridin-5-yl]indan-1-ol]
159 to 161	–	CC(C)(O)c1cccc(-c2ccn3nc(-c4ccc(Cl)cc4)cc3c2)c1 [Compound 2, 2-{3-[2-(4-chlorophenyl)pyrazolo[1,5-a]pyridin-5-yl]phenyl}propan-2-ol]
162 to 164	–	CC(C)(O)c1cccc(-c2ccn3nc(-c4ccc(F)cc4)cc3c2)c1 [Compound 7, 2-{3-[2-(4-fluorophenyl)pyrazolo[1,5-a]pyridin-5-yl]phenyl}propan-2-ol]
93 to 95	–	CC(O)c1cccc(-c2ccn3nc(-c4ccc(Cl)cc4)cc3c2)c1 (stereo not drawn) [Compound 3, 1-{3-[2-(4-chlorophenyl)pyrazolo[1,5-a]pyridin-5-yl]phenyl}ethanol]
141 to 143	–	OCc1cccc(-c2ccn3nc(-c4ccc(F)cc4)cc3c2)c1 [Compound 6, {3-[2-(4-fluorophenyl)pyrazolo[1,5-a]pyridin-5-yl]phenyl}methanol]
190 to 192	–	OCc1c(F)ccc(-c2ccn3nc(-c4ccc(Cl)cc4)cc3c2)c1F [Compound 5, {3-[2-(4-chlorophenyl)pyrazolo[1,5-a]pyridin-5-yl]-2,6-difluorophenyl}-methanol]
214 to 216	–	OCc1ccc(-c2ccn3nc(-c4ccc(Cl)cc4)cc3c2)cc1 [Compound 10, {4-[2-(4-chlorophenyl)pyrazolo[1,5-a]pyridin-5-yl]phenyl}methanol]
144 to 146	1.7	OCc1ccccc1-c1ccn2nc(-c3ccc(Cl)cc3)cc2c1 [Compound 11, {2-[2-(4-chlorophenyl)pyrazolo[1,5-a]pyridin-5-yl]phenyl}methanol]
130 to 132	–	COCc1cccc(-c2ccn3nc(-c4ccc(Cl)cc4)cc3c2)c1 [Compound 9, 2-(4-chlorophenyl)-5-(3-methoxymethylphenyl)pyrazolo[1,5-a]pyridine]
